Where a name gives a salt, the structure may show the parent alone. Read-outs that look alike come from different tables or passages of the source.
Legend:
A549 = assay: Cancer cell proliferation assay, single agent; format: cell-based; conditions: Homo sapiens, A549, 72 h, read-out: IC50 A549
FMS kinase = FMS kinase (Homo sapiens (Human), UniProt P07333); assay: LanthaScreen kinase assay (ATP, fluorescent-PolyGT substrate, TR-FRET); format: biochemical
MCF-7 = assay: Cancer cell proliferation assay, single agent; format: cell-based; conditions: Homo sapiens
PI3Kδ kinase = PI3Kδ kinase (Homo sapiens (Human), UniProt O00329); assay: PI3Kδ kinase ADP-Glo assay (Reaction Biology Corporation); conditions: read-out: PI3Kδ IC50
Hs-578T = assay: Cancer cell proliferation assay, single agent; format: cell-based; conditions: Homo sapiens, Treatment Duration 24 h
CDK6 = CDK6 (Homo sapiens (Human), UniProt Q00534); assay: biochemical; format: biochemical
[1] = tested on: pRb (Ser780 phosphorylation state of RB1) in MCF-7 cells; assay: Determination of pRb levels (Ser780 phosphorylation of RB1, ELISA) in MCF-7 cells; format: cell-based; conditions: Homo sapiens, 24 h; for inhibition at 0.01 µM: MCF7, 0.01 μM; for inhibition at 0.1 µM: MCF7, 0.1 μM; for inhibition at 1 µM: MCF7, 1 μM
Procedure: […] of the retinoblastoma protein (pRb) by cyclin D:Cdk4/6 complexes results in […] pRb, which is a clinically relevant biomarker associated with CDK4 or CDK6 inhibition. As a confirmatory measure of functional activity of CDK4/6, the Ser780 phosphorylation state of RB1 was assessed. MCF-7 cells were plated at 2.5×10^5 to 3.0×10^6 cells/well in 6-well cell-culture plates and incubated at 37° C. for 24 h in MEM medium supplemented with 10% FBS. Cells were treated for 24 h with a medium containing test compound at various concentrations (e.g., 0.01, 0.1, 1 μM) or with DMSO (≤1%) in duplicate. After incubation period, the media was removed, and cells were rinsed once with ice-cold PBS and lysed with 0.2 mL of Cell Lysis Buffer containing 1 mM PMSF and Protease Inhibitor. Protein concentration was estimated following Bradford method. The lysis and the pRB measurements were performed following the manufacturer's ELISA kit protocols and buffers (Cell Signaling Technology, Cat. No.: 13016C). pRb inhibition of test compounds were calculated as percentage of vehicle control.

CDK4 = CDK4 (Homo sapiens (Human), UniProt P11802); assay: In vitro kinase inhibition, luminescence (ADP-Glo) with retinoblastoma substrate; format: biochemical
ZR-75-30 = assay: Cancer cell proliferation assay, single agent; format: cell-based; conditions: Homo sapiens, Treatment Duration 24 h
DU4475 = assay: Cancer cell proliferation assay, single agent; format: cell-based; conditions: Homo sapiens
HCT-116 = assay: Cancer cell proliferation assay, single agent; format: cell-based; conditions: Homo sapiens, Treatment Duration 72 h, read-out: IC50 HCT116
BT-549 = assay: Cancer cell proliferation assay, single agent; format: cell-based; conditions: Homo sapiens
CDK2 (cyclin E1) = CDK2 (cyclin E1) (Homo sapiens (Human), UniProt P24941); assay: LanthaScreen Eu Kinase Binding Assay; conditions: read-out: CDK2/E IC50
CDK1 (cyclin B) = CDK1 (cyclin B) (Homo sapiens (Human), UniProt P06493); assay: Z'-LYTE kinase assay; format: biochemical
Description: The following equations were used for Z′-LYTE™ Screening Assay Data Analysis.

CDK2 (cyclin A) = CDK2 (cyclin A) (Homo sapiens (Human), UniProt P24941); assay: Z'-LYTE kinase assay; format: biochemical
Procedure: IC50 values of compounds against CDK2 (cyclin A) were determined by Z'-LYTETM. […] The following equations were used for Z'-LYTETM Screening Assay Data Analysis.

CDK9 (cyclin K) = CDK9 (cyclin K) (Homo sapiens (Human), UniProt P50750); assay: LanthaScreen Eu Kinase Binding Assay; conditions: read-out: CDK9/K IC50
CDK7 (cyclin H) = CDK7 (cyclin H) (Homo sapiens (Human), UniProt P50613); assay: Adapta Assay; format: biochemical
Description: The following equations were used for Adapta™ Assay Data Analysis.

CDK5 (p25) = CDK5 (p25) (Homo sapiens (Human), UniProt Q00535); assay: Z'-LYTE kinase assay; format: biochemical
Description: The following equations were used for Z'-LYTETM Screening Assay Data Analysis.

[2] = DU-4475, 168 h, read-out: IC50 DU4475
[3] = BT-549, 24 h, read-out: IC50 BT-549

Chain of FMS kinase (P07333 20-972): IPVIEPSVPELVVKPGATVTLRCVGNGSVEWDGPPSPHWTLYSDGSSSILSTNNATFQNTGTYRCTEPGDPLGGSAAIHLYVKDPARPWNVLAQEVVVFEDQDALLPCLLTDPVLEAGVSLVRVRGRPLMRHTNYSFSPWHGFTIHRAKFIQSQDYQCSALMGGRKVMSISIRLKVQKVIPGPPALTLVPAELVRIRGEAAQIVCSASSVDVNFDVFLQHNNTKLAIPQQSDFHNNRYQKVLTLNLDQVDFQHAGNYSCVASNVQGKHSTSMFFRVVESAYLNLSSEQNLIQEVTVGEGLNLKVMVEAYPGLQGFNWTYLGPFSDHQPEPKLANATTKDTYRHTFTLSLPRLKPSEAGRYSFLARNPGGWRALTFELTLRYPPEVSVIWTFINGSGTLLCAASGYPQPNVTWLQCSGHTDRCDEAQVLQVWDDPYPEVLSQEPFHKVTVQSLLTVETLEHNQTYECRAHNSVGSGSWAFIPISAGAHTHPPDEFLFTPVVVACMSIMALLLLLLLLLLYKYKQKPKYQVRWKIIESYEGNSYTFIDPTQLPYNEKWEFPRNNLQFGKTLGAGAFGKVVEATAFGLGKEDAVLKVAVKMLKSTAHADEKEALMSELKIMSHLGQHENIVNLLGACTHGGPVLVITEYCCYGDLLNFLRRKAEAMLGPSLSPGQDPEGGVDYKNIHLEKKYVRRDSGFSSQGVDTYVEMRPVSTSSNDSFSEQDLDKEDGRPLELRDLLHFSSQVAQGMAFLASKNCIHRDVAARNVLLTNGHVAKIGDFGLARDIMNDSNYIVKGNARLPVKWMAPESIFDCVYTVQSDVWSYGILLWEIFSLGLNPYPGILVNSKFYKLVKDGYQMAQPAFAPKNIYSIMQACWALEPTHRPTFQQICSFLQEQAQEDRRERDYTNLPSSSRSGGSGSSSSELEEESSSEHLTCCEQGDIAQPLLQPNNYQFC
Chain of PI3Kδ kinase (O00329 whole entry): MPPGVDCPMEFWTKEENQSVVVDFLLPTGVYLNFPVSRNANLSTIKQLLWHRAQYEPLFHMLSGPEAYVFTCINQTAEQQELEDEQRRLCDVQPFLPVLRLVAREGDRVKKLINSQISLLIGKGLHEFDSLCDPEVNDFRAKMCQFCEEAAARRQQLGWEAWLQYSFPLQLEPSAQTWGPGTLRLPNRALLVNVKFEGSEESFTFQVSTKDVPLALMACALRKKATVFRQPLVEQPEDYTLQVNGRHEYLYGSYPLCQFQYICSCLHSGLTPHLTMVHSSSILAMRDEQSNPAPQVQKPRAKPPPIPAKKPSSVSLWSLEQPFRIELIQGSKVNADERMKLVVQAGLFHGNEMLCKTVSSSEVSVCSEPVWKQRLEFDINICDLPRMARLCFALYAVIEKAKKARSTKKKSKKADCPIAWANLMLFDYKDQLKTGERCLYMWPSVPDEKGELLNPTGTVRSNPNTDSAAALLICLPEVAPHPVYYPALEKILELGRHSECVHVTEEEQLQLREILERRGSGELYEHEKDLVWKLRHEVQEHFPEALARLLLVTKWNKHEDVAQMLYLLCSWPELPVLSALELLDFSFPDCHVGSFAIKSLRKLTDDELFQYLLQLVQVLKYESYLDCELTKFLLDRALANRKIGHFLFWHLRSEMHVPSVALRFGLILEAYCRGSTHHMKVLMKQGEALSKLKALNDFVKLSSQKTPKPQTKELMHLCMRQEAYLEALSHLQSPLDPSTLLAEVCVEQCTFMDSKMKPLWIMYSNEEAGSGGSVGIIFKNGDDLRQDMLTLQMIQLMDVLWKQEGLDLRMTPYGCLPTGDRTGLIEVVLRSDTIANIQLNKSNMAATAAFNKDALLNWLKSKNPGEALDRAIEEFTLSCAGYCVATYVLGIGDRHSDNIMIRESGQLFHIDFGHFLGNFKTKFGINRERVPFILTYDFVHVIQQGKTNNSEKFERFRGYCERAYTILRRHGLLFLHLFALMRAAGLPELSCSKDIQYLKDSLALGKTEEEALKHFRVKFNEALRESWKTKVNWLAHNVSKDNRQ
Chain of PI3Kδ kinase (P27986 whole entry partner): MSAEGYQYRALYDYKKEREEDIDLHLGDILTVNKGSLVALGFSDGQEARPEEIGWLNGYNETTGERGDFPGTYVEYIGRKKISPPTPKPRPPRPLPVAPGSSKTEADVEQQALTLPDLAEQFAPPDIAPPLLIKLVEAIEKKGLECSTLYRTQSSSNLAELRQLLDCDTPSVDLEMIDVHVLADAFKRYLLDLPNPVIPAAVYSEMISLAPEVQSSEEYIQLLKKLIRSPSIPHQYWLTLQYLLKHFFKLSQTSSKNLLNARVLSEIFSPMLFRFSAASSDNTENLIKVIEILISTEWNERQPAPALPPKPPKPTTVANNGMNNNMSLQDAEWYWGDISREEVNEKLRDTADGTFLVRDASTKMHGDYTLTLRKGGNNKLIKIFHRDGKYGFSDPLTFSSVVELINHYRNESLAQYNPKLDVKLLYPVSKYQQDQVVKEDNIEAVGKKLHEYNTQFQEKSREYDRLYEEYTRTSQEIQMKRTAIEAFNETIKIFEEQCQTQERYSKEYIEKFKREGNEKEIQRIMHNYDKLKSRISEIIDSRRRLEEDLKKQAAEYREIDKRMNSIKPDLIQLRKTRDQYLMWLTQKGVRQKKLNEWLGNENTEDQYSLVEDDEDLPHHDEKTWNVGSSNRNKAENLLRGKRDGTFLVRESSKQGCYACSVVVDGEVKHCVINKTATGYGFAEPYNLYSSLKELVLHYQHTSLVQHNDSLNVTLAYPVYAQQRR
Chain of CDK1 (cyclin B) (P06493 whole entry): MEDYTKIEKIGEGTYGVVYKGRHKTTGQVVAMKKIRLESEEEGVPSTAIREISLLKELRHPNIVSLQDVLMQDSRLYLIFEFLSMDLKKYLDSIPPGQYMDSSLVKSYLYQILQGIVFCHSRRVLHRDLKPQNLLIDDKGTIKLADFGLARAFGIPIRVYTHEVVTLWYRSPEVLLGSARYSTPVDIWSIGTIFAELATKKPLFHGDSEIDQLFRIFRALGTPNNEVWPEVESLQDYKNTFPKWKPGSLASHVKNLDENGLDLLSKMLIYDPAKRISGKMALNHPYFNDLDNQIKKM
Chain of CDK1 (cyclin B) (P14635 whole entry partner): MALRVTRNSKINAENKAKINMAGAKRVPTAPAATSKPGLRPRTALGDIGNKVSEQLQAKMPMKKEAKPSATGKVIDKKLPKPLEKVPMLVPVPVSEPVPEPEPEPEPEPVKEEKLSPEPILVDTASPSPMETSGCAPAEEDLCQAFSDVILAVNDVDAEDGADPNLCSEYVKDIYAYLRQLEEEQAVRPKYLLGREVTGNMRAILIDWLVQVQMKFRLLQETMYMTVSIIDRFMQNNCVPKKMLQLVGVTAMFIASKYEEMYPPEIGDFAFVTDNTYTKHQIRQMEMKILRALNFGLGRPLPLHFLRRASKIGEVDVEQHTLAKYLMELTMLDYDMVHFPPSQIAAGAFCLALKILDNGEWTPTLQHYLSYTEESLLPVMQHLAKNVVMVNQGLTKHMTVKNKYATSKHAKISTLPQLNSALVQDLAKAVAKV
Chain of CDK5 (p25) (Q00535 whole entry): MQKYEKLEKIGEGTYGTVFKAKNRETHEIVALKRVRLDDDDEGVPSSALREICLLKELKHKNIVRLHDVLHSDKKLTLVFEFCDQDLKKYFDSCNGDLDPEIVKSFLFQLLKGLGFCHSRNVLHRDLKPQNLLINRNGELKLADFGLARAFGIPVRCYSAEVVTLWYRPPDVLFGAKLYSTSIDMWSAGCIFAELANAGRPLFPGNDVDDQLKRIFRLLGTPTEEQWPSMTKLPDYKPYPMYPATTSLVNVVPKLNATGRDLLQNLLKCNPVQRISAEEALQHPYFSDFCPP
Chain of CDK5 (p25) (Q15078 99-307 partner): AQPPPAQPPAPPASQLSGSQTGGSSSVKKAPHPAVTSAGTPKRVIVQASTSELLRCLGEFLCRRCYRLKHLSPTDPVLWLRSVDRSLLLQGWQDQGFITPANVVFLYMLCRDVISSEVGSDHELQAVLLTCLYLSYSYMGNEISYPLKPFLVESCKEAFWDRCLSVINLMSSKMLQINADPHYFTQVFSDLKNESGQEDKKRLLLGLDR
Chain of CDK7 (cyclin H) (P50613 whole entry): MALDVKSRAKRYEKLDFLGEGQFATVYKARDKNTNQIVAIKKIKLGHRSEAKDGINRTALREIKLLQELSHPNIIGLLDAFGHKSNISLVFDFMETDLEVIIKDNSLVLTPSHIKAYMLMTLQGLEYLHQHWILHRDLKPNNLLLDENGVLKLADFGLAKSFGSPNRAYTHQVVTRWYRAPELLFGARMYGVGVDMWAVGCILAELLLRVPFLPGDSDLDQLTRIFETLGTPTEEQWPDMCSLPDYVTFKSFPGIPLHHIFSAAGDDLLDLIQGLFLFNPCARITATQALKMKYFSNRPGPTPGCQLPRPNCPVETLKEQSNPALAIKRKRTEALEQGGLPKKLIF
Chain of CDK7 (cyclin H) (P51946 whole entry partner): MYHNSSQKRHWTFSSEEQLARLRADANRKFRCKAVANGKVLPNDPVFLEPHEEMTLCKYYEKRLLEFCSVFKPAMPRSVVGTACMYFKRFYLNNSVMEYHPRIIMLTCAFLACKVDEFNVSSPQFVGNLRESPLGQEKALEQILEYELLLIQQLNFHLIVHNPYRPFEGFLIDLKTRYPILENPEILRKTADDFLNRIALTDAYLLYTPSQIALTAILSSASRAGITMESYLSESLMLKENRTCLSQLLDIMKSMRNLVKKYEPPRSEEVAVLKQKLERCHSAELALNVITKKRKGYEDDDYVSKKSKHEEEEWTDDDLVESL
Chain of CDK7 (cyclin H) (P51948 whole entry partner): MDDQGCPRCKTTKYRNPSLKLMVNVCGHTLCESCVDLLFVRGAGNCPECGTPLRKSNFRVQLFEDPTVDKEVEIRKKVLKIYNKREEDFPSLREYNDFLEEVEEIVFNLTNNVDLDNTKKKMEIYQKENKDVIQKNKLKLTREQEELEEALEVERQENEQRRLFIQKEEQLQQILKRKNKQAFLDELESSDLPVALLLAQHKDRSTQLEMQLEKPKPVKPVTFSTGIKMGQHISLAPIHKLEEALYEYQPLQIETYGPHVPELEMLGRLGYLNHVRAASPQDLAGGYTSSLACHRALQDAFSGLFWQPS

| Compound | IC50 (A549) [nM] | IC50 (FMS kinase) [nM] | IC50 (PI3Kδ kinase) [nM] | inhibition at 0.01 µM [1] [%] | inhibition at 0.1 µM [1] [%] | inhibition at 1 µM [1] [%] | IC50 (DU4475; [2]) [nM] | IC50 (HCT-116) [nM] | IC50 (BT-549; [3]) [nM] | IC50 (CDK1 (cyclin B)) [nM] | IC50 (CDK2 (cyclin A)) [nM] | other results |
| --- | --- | --- | --- | --- | --- | --- | --- | --- | --- | --- | --- | --- |
| CC(C)N1CCOc2c(F)cc(-c3nc(Nc4ccc(N5CCNCC5)cn4)ncc3F)cc21 [Compound 1, 5-fluoro-4-(8-fluoro-4-isopropyl-3,4-dihydro-2H-benzo[b][1,4]oxazin-6-yl)-N-(5-(piperazin-1-yl)pyridin-2-yl)pyrimidin-2-amine] | 65 | 1330 | 3360 | 77 | 80 | 89 | 575 | 515 | 3200 |  |  | IC50 (MCF-7; MCF7, Treatment Duration 72 h, read-out: IC50 MCF-7): 68 nM; IC50 (Hs-578T): 60 nM; IC50 (CDK6): 0.2 nM; IC50 (CDK4): 0.2 nM; IC50 (ZR-75-30): 49 nM |
| CC(C)N1CCOc2c(F)cc(-c3nc(Nc4ccc(N5CCNCC5)c(F)c4)ncc3F)cc21 [Compound 12, 5-fluoro-N-(3-fluoro-4-(piperazin-1-yl)phenyl)-4-(8-fluoro-4-isopropyl-3,4-dihydro-2H-benzo[b][1,4]oxazin-6-yl)pyrimidin-2-amine hydrochloride] | < 13 | 29 | 674 | -5 | 81 | 81 | 40 | < 13 | 230 | 3.9 | 0.7 | IC50 (CDK2 (cyclin E1)): 7.2 nM; IC50 (MCF-7; MCF7, 72 h, read-out: IC50 MCF-7): < 10 nM |
| CC(C)N1CCOc2c(F)cc(-c3nc(Nc4ccc(N5CCC(N(C)C)CC5)c(F)c4)ncc3F)cc21 [Compound 25, N-(4-(4-(dimethylamino)piperidin-1-yl)-3-fluorophenyl)-5-fluoro-4-(8-fluoro-4-isopropyl-3,4-dihydro-2H-benzo[b][1,4]oxazin-6-yl)pyrimidin-2-amine] |  | 5 | 6100 |  |  |  |  |  |  | 6.7 | 3.4 | IC50 (MCF-7; MCF7, MCF-7 cells, treated for 24-168 hours, read-out: IC50 (nM) MCF-7): 25 nM; IC50 (CDK9 (cyclin K)): 5 nM; IC50 (CDK7 (cyclin H)): 145 nM; IC50 (CDK5 (p25)): 3.6 nM; IC50 (DU4475; DU-4475, DU4475 cells, treated for 24-168 hours, read-out: IC50 (nM) DU4475): 46 nM; IC50 (BT-549; BT-549 cells, treated for 24-168 hours, read-out: IC50 (nM) BT-549): < 1110 nM |
